Reference: article PMC12446003, “Pharmacological characterization of linaprazan glurate (X842), a novel potassium-competitive acid blocker, in vitro and in vivo” (Frontiers in Pharmacology, 2025)
Read-outs that look alike come from different tables or passages of the source.

Columns and labels:
gastric pH = test: Phase I gastric pH holding time ratio; assay type: in vivo, humans; conditions: unpublished Phase I data
[1] = tested on: gastric acid secretion in pylorus-ligated rats; test: Gastric acid inhibition in pylorus-ligated rats; assay type: in vivo
Protocol: The rats were fasted overnight with ad libitum access to water. Drugs and vehicle were administered orally to rats in a blinded manner. The pylorus was ligated under ether anesthesia within 1 h after drug and vehicle administration, and the abdomen was closed by suturing. At 4 h after pyloric ligation, the rats were sacrificed by CO2 asphyxiation, and the stomach was removed ([Hori et al., 2010]). The gastric contents were collected and centrifuged at 3,000 rpm for 10 min. The volume of each sample was measured, the gastric acid concentration was determined by acid-base titration, and the total acidity was calculated.

rats = test: Toxicity in rats (data to be published); assay type: in vivo
[2] = Pharmacokinetic assessment of X842 in rats (IV, single oral, repeated oral); assay type: in vivo, Sprague-Dawley rats; conditions: for Cmax / AUC(0-t) / half-life: Sprague-Dawley, rat, plasma; for AUC(0-t): read-out: AUC(0–24h)
Protocol: Male and female Sprague-Dawley rats weighing approximately 150 g were housed individually with a 12-h light/dark cycle. Food and water were provided ad libitum, except during overnight fasting (10–16 h) prior to oral drug administration, as described previously ([Kotegawa et al., 1998]; [Kotegawa et al., 2002]). To investigate the absorption kinetics of X842 (prodrug) and linaprazan (metabolite, parent drug) in rats after oral and intravenous administration of X842, X842 were dissolved in 5% Solutol HS15/45% ethanol/10% PEG400/40% saline, and methane sulfonic acid was used to adjust to pH 3, yielding solutions with concentrations of 0.6 mg/mL, 2.4 mg/mL, and 9.6 mg/mL for oral administration. For intravenous (IV) injection, a drug solution (0.6 mg/mL) was prepared and filtered through a 0.22-μm filter. Blood samples were collected via the jugular vein of conscious rats (without intubation, narcotics, or antibiotics) prior to dosing and at 0.083, 0.25, 0.5, 1, 2, 4, 6, 8, and 24 h after dosing. Blood samples were placed into tubes containing sodium heparin and centrifuged at 3,500 rpm for 10 min at 4 °C. Following centrifugation, the plasma was transferred to clean tubes and stored at −80 °C until further analysis. All animals were euthanized by carbon dioxide (CO2) inhalation after the final blood sample collection.
Pharmacokinetic assessments were conducted by Shanghai Medicilon Inc. Using C18 solid-phase extraction (Shimadzu UFLC-20A, ACE 3, C18, 3.0 µm, 150 × 4.6 mm; Shimadzu, Japan) with the following conditions: mobile phase A: 1 M ammonium acetate in water, mobile phase B: 100% acetonitrile; gradient 0–5 min: 100% A, 5–30 min: 85% A, 35–63 min: 75% A, 63–65 min: 55% A, 65–70 min: 0% A, 72–87 min: 100% A; flow rate 0.7 mL/min; column temperature 30 °C ([Weidof and Covey, 1992]). […] Bioavailability was calculated as F (%) = (Doseiv × AUCpo(0–24h)) ÷ (Dosepo × AUCiv (0–24h)) × 100%, where “po” represents oral administration and “iv” represents intravenous administration.

[3] = tested on: histamine-stimulated acid secretion in pylorus-ligated rats; test: Histamine-stimulated acid secretion in pylorus-ligated rat models; assay type: in vivo, Sprague-Dawley rats; conditions: histamine 30 mg/kg s.c., pylorus-ligated male rats
Protocol: 1.1 Histamine-stimulated acid secretion in pylorus-ligated rat models
The rats were fasted overnight with ad libitum access to water. Vehicle or X842 (2 mg/kg, 8 mg/kg) was administered orally to male Sprague-Dawley rats using a feeding catheter ina blinded manner. One hour after dosing, the pylorus was ligated under isoflurane anesthesia, and histamine (30 mg/kg/10 mL) was immediately administered subcutaneously. At 3 hours after histamine administration, the rats were sacrificed by carbon dioxide asphyxiation. The gastric contents were collected from the removed stomach. The gastric contents were collected and centrifuged at 3000 rpm for 10 minutes. The volume of each sample was measured, the gastric acid concentration was determined by acid-base titration, and the total acidity was […]
2.Supplementary Figures and Tables
2.1 Supplementary Figures

dogs = test: Toxicity in dogs (data to be published); assay type: in vivo
acid secretion = tested on: acid secretion; parameters: method as in Gedda et al., 2007; Scarpignato and Hunt, 2024; conditions: rats; ref Gedda et al., 2007; Scarpignato and Hunt, 2024; cited from earlier work
[4] = female, iv, 0.6 mg/kg, female rats, intravenous X842, plasma analyte as labelled
[5] = female, iv, 0.6 mg/kg, female rats, intravenous X842, plasma analyte as labelled, read-out: t1/2 (converted)
[6] = female, po, 0.6 mg/kg, female rats, single oral X842 0.6 mg/kg, analyte as labelled
[7] = female, po, 0.6 mg/kg, female rats, single oral X842 0.6 mg/kg, analyte as labelled, read-out: t1/2 (converted)
[8] = female, po, 2.4 mg/kg, female rats, single oral X842 2.4 mg/kg, analyte as labelled
[9] = female, po, 2.4 mg/kg, female rats, single oral X842 2.4 mg/kg, analyte as labelled, read-out: t1/2 (converted)
[10] = female, po, 2.4 mg/kg, female rats, single oral X842, 2.4 mg/kg (third dose group)
[11] = male, iv, 0.6 mg/kg, male rats, intravenous X842, plasma analyte as labelled
[12] = male, iv, 0.6 mg/kg, male rats, intravenous X842, plasma analyte as labelled (prodrug X842 / parent linaprazan), read-out: t1/2 (converted)
[13] = male, po, 0.6 mg/kg, male rats, single oral X842 0.6 mg/kg, analyte as labelled
[14] = male, po, 2.4 mg/kg, male rats, single oral X842 2.4 mg/kg, analyte as labelled
[15] = male, po, 2.4 mg/kg, male rats, single oral X842 2.4 mg/kg, analyte as labelled, read-out: t1/2 (converted)
[16] = male, po, 2.4 mg/kg, male rats, single oral X842, 2.4 mg/kg (third dose group)
[17] = female, po, 9.6 mg/kg, female rats, single oral X842 9.6 mg/kg, analyte as labelled
[18] = male, po, 9.6 mg/kg, male rats, single oral X842 9.6 mg/kg, analyte as labelled

In the case of `Cc1cccc(C)c1CNc1cc(C(=O)NCCOC(=O)CCCC(=O)O)cn2c(C)c(C)nc12` [X842, linaprazan glurate], the “Gastric pH ≥4 holding time ratio (HTR)” value (gastric pH; oral doses ≥50 mg, throughout the 24-h period) is reported as over 50%, the “Gastric pH ≥4 holding time ratio (HTR), nocturnal” value (gastric pH; oral doses ≥100 mg, nocturnal periods (12–24 h)) is reported as over 50% and the “Duration of acid suppression” value ([1]; after a single oral dose) is reported as “at least 24 h”. For the same molecule, the “Total acidity inhibitory rate (%)” value ([1]; oral 0.15 mg/kg, pylorus-ligated rats (not significant)) was 6%, the “Total acidity inhibitory rate (%)” value ([1]; oral 0.5 mg/kg, pylorus-ligated rats) was 44% and the “Total acidity inhibitory rate (%)” value ([1]; oral 1.0 mg/kg, pylorus-ligated rats) was 61%. The “Total acidity inhibitory rate (%)” value ([1]; oral 1.5 mg/kg, pylorus-ligated rats) was 85%, the “Dose required for 50% inhibition (ID50)” value ([1]; oral, pylorus-ligated rats, total gastric acid) was 0.55 mg/kg and the “Adverse effects (acute, reproductive, teratogenic, carcinogenic toxicity)” value (rats) was “No significant adverse effects”. The Cmax [2, 4] was 606 ± 284 ng/mL, the AUC(0-t) [2, 4] was 218 ± 101 ng·h/mL and the half-life [2, 5] was 0.4 ± 0.03 h. For the same molecule, the Cmax [2, 6] was 8.7 ± 4.9 ng/mL, the AUC(0-t) [2, 6] was 13.8 ± 13.1 ng·h/mL and the half-life [2, 7] was 2.8 h. The Cmax [2, 8] was 42.6 ± 17.4 ng/mL, the AUC(0-t) [2, 8] was 85.6 ± 45.6 ng·h/mL and the half-life [2, 9] was 4.1 ± 1.2 h. The Cmax [2, 10] was 164 ± 124 ng/mL, the AUC(0-t) [2, 10] was 310 ± 256 ng·h/mL and the half-life ([2]; female, po, 2.4 mg/kg, female rats, single oral X842, 2.4 mg/kg (third dose group), read-out: t1/2 (converted)) was 2.1 ± 0.3 h. It also gave a half-life ([2]; female, po, female rats, single-dose oral administration, read-out: t1/2 (range over doses)) of 2.1 to 4.1 h, a Cmax [2, 11] of 448 ± 120 ng/mL and a half-life [2, 12] of 0.4 ± 0.1 h. The AUC(0-t) [2, 11] was 146 ± 38 ng·h/mL, the Cmax [2, 13] was 2.5 ± 1.8 ng/mL and the AUC(0-t) [2, 13] was 2.5 ± 2.6 ng·h/mL. It also gave a Cmax [2, 14] of 14.6 ± 10.1 ng/mL, an AUC(0-t) [2, 14] of 18.3 ± 10 ng·h/mL and a half-life [2, 15] of 2.6 h. It also gave a Cmax [2, 16] of 49.7 ± 35.4 ng/mL, an AUC(0-t) [2, 16] of 11.6 ± 77.5 ng·h/mL and a half-life ([2]; male, po, 2.4 mg/kg, male rats, single oral X842, 2.4 mg/kg (third dose group), read-out: t1/2 (converted)) of 2.01 ± 0.18 h. The half-life ([2]; male, po, male rats, single-dose oral administration, read-out: t1/2 (range over doses)) was 2 to 2.7 h, the “Plasma concentration after IV administration” value ([2]; within 0.5 h after IV administration, male and female rats) was “barely detectable” and the “Total acidity inhibitory rate (%)” value ([3]; oral 2 mg/kg) was 66%. For the same molecule, the “Total acidity inhibitory rate (%)” value ([3]; oral 8 mg/kg) was 71% and the “Adverse effects (acute, reproductive, teratogenic, carcinogenic toxicity)” value (dogs) was “No significant adverse effects”.

For `Cc1cccc(C)c1CNc1cc(C(=O)NCCO)cn2c(C)c(C)nc12` [linaprazan], the “Duration of inhibitory effect on acid secretion” value (acid secretion) is given as 24 h, the Cmax [2, 4] is given as 80.5 ± 17.7 ng/mL and the AUC(0-t) [2, 4] is given as 133 ± 11.1 ng·h/mL. For the same molecule, the half-life [2, 5] was 2 ± 0.4 h, the Cmax [2, 6] was 13.5 ± 5.8 ng/mL and the AUC(0-t) [2, 6] was 67.6 ± 23.7 ng·h/mL. For the same molecule, the half-life [2, 7] was 3.7 ± 1.6 h, the Cmax [2, 8] was 72.5 ± 5.6 ng/mL and the AUC(0-t) [2, 8] was 382 ± 44.9 ng·h/mL. For the same molecule, the half-life [2, 9] was 2.7 ± 0.4 h, the Cmax [2, 17] was 336 ± 69.4 ng/mL and the AUC(0-t) [2, 17] was 3020 ng·h/mL. It also gave a half-life ([2]; female, po, 9.6 mg/kg, female rats, single oral X842 9.6 mg/kg, analyte as labelled, read-out: t1/2 (converted)) of 2.6 ± 0.1 h, a Cmax [2, 11] of 114 ± 17 ng/mL and a half-life [2, 12] of 1.4 ± 0.1 h. For the same molecule, the AUC(0-t) [2, 11] was 114 ± 7.1 ng·h/mL, the Cmax [2, 13] was 6.2 ± 1.7 ng/mL and the AUC(0-t) [2, 13] was 22.1 ± 9.9 ng·h/mL. It also gave a half-life ([2]; male, po, 0.6 mg/kg, male rats, single oral X842 0.6 mg/kg, analyte as labelled, read-out: t1/2 (converted)) of 2.2 ± 1 h, a Cmax [2, 14] of 32 ± 9.7 ng/mL and an AUC(0-t) [2, 14] of 134 ± 43.3 ng·h/mL. For the same molecule, the half-life [2, 15] was 2.6 ± 0.5 h, the Cmax [2, 18] was 128 ± 17.5 ng/mL and the AUC(0-t) [2, 18] was 576 ± 46.1 ng·h/mL. The half-life ([2]; male, po, 9.6 mg/kg, male rats, single oral X842 9.6 mg/kg, analyte as labelled, read-out: t1/2 (converted)) was 3.1 ± 0.3 h.
